{"source": "patent US12653801B2", "about": "“Digestive lipase activity inhibitor, blood triglyceride concentration increase inhibitor, and fat absorption inhibitor” (Pharma Foods International Co., Ltd., priority 2020, dated 2026)", "key": {"[1]": {"tested_on": "digestive lipase solution (mixture of pancreatic lipase, intestinal lipase, and the like) from rat intestinal acetone powder", "test": "Test 1: digestive lipase activity inhibition test with linoleic acid and oleic acid (Lipase Kit S, absorbance 412 nm)", "assay_type": "biochemical", "conditions": "DMSO solution", "experimental": "30 mL of 0.1 M citrate buffer solution (pH 6.0) was added to 30 mg of rat intestinal acetone powder (manufactured by SIGMA Corporation), shaken in ice for 1 hour, and centrifuged at 4° C. and 10,000 rpm for 45 minutes, to obtain a digestive lipase solution. The digestive lipase solution is a mixture of pancreatic lipase, intestinal lipase, and the like. […] After that, 25 μL of the substrate solution was added, and the reaction was carried out at 30° C. for 30 minutes in the dark. After that, 700 μL of a reaction stop solution was added, and the absorbance at 412 nm was measured for this solution. As the coloring solution, the substrate solution, the esterase inhibitor, and the reaction stop solution, those attached to Lipase Kit S (manufactured by SB Bioscience Co., Ltd.) were used. A control was prepared in a new 1.5 mL capacity tube for the purpose of measuring the absorbance of the above samples and reagents themselves. […] After that, 700 μL of reaction stop solution and 25 μL of substrate solution were added, and the absorbance at 412 nm was measured. In addition, blank a was prepared in the same manner as in the activity evaluation except that only DMSO was added instead of the DMSO solution of each sample, and blank b was prepared in the same manner as the control by adding only DMSO (control blank). Absorbance at 412 nm was also measured for blank a and blank b. Digestive lipase activity when each sample was added was calculated by the following equation. Digestive lipase activity (%)=100×(absorbance of each sample−absorbance of control)/(absorbance of blank a−absorbance of blank b) (Results)"}, "[2]": {"tested_on": "digestive lipase solution (mixture of pancreatic lipase, intestinal lipase, and the like) from rat intestinal acetone powder", "test": "Test 2: digestive lipase activity inhibition test with mixture of linoleic acid and oleic acid", "assay_type": "biochemical", "conditions": "0.009 mg/mL linoleic acid aqueous solution, final concentration", "procedure": "A control was prepared in a new 1.5 mL capacity tube for the purpose of measuring the absorbance of the above samples and reagents themselves. […] After that, 700 μL of reaction stop solution and 25 μL of substrate solution were added, and the absorbance at 412 nm was measured. […] Absorbance at 412 nm was also measured for blank a and blank b.\nFirst, the digestive lipase activity inhibition rate of each sample was calculated according to the equation shown below."}}, "data": [{"compound": "c1cc2c(cc1[C@H]1OC[C@H]3[C@@H]1CO[C@@H]3c1ccc3c(c1)OCO3)OCO2", "note": "[sesamin, reference compound]", "values": [{"measurement": "Digestive lipase activity", "setting": "[1]; 0.044 mg/mL final concentration, for comparison", "result": 110.9, "unit": "%"}]}, {"compound": "CCCCCCCC/C=C\\CCCCCCCC(=O)O", "note": "[oleic acid]", "values": [{"measurement": "Digestive lipase activity", "setting": "[1]; 0.16 mg/mL final concentration, 30° C. 30 minutes", "result": 7.1, "unit": "%"}]}, {"compound": "CCCCC/C=C\\C/C=C\\CCCCCCCC(=O)O", "note": "[linoleic acid]", "values": [{"measurement": "Digestive lipase activity", "setting": "[1]; 0.19 mg/mL final concentration, 30° C. 30 minutes", "result": 8.9, "unit": "%"}, {"measurement": "Digestive lipase activity inhibition rate", "setting": "[2]", "result": 9.6, "unit": "%"}]}]}
